One experiment addresses G2019S LRRK2 (Homo sapiens, UniProt Q5S007, G2019S). Put plainly: G2019S LRRK2 inhibition (Invitrogen SelectScreen / TR-FRET biochemical assay). Also noted: The protein construct used in the assay is GST tagged 969-2527; GST; purchased Invitrogen. The conditions noted are these: for IC50: numeric value. How it is done:
IC50s were determined using Invitrogen's SelectScreen® Profiling Service for wild type and LRRK2 G2019S. The test compounds were screened in 1% DMSO (final) in the well.
a) % inhibition is measured at one concentration
b) a 10-point titration is run to ensure the kinase is inhibited within an expected IC50 range
Biochemical Assay Protocol:
Compound potency against wild-type and G2019S LRRK2 is measured via TR-FRET. The IC50, the amount of inhibitor required to inhibitor 50% of the protein under the given assay conditions, is determined by varying the amount of compound (500-0.001 uM) by serial dilution with 12-data points per compound, in duplicate. The substrate (Fluorescein-GAGRLGRDKYKTLRQIRQ) and ATP is fixed at 0.8 uM and 57 uM (KmATP), respectively. All assays are run in Corning low volume […] round bottomed plates. The assay is run in 50 mM Tris-HCl pH8.5, 10 mM MgCl2, 0.01% Brij-35, 1 mM EGTA, 2 mMDTT. The TR-FRET assay is an end-point assay where the reaction with protein, substrate, inhibitor and ATP is incubated for 1 hour at room temperature. The compound is pre-incubated with the protein and substrate prior to initiating the reaction with ATP. Phospho-transfer is detected using a Terbium labeled anti-pLRRKtide that binds to phosphorylated substrate creating FRET transfer when excited at 340 nm. Emissions signals are taken for terbium and FRET induced fluorescein at 495 nm and 520 nm, respectively, using a Biotek Synergy 2 spectrophotometer. The dose response is determined by plotting the emission ratio of 520/495 against the log of the inhibitor concentration. The maximum inhibition and non-inhibition controls is run on all plates. Staurosporine is used as the positive inhibition control and DMSO is used as the negative point control. A 12-point dose curve of Staurosporine is run as a dosing control. The IC50 is determined to be the inhibitor concentration at which 50% inhibition is achieved. The protein construct used in the assay is GST tagged 969-2527. The protein is commercially available from Invitrogen.
Alternatively, compounds of formulas (II), (I), (I-A), (I-B), (I-C), (I-D), (I-D-1), (I-D-2), (I-E), (I-F), (I-G), (I-H), (I-I), (I-I-1), (I-I-2), (I-J), (I-K), (I-L), (I-M), (I-N), (I-Z-1), (I-Z-2), (I-Z-2-a), (I-Z-2-b), (I-Z-2-c), (I-Z-2-d), (I-Z-3-a), (I-Z-3-b), (I-Z-3-c), or (I-Z-3-d) were tested using Invitrogen's SelectScreen® Profiling Service for LRRK2 G2019S.
Background: TR-FRET usually uses a lanthanide donor and a delayed reading to cut background.

The target of the next experiment is ABL1 (Homo sapiens, UniProt P00519). Put plainly: Kinase selectivity panel: ABL1. It is filed as biochemical.
A further experiment concerns the target T1, AURKA (Homo sapiens, UniProt O14965).
T1 sequence (O14965 1-403): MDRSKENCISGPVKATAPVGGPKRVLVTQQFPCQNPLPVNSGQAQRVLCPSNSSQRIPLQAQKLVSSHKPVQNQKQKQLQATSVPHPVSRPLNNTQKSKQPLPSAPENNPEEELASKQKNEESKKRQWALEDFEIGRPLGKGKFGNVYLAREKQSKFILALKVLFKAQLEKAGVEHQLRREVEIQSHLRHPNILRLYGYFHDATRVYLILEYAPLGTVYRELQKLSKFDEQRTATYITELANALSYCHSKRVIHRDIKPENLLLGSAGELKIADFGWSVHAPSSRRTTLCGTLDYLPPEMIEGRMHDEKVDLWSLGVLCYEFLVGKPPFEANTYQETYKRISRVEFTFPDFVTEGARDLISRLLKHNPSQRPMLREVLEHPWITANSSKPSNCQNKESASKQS
Put plainly: Kinase selectivity panel: AURKA. It is filed as biochemical.

Another experiment concerns the target CAMK2D (Homo sapiens, UniProt Q13557). Put plainly: Kinase selectivity panel: CAMK2D. It is filed as biochemical.
A further experiment has as its target CDK5/p35 (Homo sapiens, UniProt Q00535). Put plainly: Kinase selectivity panel: CDK5/p35. It is filed as biochemical.
A further experiment addresses T2, CHEK1 (Homo sapiens, UniProt O14757).
T2 sequence (O14757 1-476): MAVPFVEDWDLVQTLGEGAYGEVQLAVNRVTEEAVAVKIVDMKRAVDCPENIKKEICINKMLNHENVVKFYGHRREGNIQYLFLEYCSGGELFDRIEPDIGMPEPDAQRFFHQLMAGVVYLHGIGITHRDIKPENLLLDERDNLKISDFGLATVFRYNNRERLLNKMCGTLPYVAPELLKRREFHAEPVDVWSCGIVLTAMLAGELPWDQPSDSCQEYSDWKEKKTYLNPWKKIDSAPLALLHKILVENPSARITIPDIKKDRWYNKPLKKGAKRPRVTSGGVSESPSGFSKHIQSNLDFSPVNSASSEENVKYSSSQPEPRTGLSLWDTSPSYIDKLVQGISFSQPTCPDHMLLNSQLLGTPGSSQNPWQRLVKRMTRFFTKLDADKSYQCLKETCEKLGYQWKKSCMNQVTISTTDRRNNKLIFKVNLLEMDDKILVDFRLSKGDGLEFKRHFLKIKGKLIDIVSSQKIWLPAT
Put plainly: Kinase selectivity panel: CHEK1. It is filed as biochemical.

The target in another experiment is T3, IRAK4 (Homo sapiens, UniProt Q9NWZ3).
T3 sequence (Q9NWZ3 1-460): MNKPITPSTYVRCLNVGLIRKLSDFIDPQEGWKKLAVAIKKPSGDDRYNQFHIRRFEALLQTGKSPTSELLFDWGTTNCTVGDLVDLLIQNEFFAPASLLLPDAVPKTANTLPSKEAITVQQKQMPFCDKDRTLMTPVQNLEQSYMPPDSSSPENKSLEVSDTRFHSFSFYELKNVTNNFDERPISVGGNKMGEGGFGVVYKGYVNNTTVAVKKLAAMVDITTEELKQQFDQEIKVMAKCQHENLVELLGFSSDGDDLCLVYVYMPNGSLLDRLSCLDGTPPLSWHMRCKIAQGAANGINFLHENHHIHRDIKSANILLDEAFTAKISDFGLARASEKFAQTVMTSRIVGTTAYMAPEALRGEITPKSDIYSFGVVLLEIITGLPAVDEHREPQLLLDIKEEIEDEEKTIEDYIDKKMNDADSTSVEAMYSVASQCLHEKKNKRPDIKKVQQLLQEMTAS
The experiment can be described thus: Kinase selectivity panel: IRAK4. It is filed as biochemical.

A further experiment has as its target MARK2 (Homo sapiens, UniProt Q7KZI7). The experiment can be described thus: Kinase selectivity panel: MARK2. It is filed as biochemical.

Each structure is given as a SMILES string. Some results are limits rather than exact numbers.

The record followed here is patent publication US20140205537A1, “LRRK2 INHIBITORS” (ZENOBIA THERAPEUTICS, INC., priority 2011, published 2014).

Sequence of CDK5/p35 (Q00535 whole entry, species assumed): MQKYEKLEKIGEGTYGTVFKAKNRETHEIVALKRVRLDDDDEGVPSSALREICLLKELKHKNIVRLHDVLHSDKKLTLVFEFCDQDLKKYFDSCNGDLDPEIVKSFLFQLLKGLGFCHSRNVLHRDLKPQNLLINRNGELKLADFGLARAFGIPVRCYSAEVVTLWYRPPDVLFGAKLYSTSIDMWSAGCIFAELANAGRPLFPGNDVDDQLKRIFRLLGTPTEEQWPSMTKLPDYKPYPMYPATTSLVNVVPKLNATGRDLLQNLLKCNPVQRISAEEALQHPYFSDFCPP
Sequence of CDK5/p35 (Q15078 whole entry partner, species assumed): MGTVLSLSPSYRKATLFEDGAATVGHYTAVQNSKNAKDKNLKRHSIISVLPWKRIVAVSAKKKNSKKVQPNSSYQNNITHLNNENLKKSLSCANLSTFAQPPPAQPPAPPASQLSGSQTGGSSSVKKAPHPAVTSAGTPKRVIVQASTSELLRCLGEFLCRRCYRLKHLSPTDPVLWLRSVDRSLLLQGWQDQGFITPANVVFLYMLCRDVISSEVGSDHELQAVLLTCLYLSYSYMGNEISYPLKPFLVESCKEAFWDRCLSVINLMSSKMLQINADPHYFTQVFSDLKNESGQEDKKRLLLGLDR
Sequence of MARK2 (Q7KZI7 whole entry, species assumed): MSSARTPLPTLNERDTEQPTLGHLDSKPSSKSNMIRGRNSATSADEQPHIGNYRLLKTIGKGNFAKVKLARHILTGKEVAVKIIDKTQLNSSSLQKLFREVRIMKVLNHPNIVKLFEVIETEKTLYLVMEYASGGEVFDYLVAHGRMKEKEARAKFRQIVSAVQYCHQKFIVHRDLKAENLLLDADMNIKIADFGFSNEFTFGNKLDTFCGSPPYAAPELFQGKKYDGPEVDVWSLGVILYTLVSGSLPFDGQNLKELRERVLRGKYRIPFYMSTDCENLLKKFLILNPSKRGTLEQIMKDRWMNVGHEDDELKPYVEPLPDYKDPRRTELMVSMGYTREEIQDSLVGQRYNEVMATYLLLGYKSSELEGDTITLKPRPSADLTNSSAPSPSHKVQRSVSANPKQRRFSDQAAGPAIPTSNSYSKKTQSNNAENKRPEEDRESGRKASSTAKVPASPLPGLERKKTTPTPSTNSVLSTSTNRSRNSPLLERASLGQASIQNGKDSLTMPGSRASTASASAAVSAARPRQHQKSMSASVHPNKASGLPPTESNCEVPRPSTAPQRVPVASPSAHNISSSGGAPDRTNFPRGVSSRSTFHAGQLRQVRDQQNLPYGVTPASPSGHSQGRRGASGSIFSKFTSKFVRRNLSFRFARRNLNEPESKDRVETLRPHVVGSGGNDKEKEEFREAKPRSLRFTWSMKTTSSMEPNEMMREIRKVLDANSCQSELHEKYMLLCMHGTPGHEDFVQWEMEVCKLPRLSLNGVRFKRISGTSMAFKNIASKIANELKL
Sequence of CAMK2D (Q13557 whole entry, species assumed): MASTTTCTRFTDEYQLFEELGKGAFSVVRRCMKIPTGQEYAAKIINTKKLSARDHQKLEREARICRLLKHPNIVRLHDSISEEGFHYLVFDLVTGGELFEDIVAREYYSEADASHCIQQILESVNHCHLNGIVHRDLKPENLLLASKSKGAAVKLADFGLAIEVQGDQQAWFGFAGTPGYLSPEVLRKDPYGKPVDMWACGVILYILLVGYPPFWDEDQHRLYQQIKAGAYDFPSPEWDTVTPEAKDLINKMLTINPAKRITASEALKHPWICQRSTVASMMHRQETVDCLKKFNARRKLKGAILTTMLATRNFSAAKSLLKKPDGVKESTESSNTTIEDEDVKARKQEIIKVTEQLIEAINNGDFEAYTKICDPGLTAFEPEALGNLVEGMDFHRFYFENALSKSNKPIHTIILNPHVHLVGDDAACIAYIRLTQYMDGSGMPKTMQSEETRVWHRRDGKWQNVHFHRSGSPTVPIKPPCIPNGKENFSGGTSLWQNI
Sequence of ABL1 (P00519 whole entry, species assumed): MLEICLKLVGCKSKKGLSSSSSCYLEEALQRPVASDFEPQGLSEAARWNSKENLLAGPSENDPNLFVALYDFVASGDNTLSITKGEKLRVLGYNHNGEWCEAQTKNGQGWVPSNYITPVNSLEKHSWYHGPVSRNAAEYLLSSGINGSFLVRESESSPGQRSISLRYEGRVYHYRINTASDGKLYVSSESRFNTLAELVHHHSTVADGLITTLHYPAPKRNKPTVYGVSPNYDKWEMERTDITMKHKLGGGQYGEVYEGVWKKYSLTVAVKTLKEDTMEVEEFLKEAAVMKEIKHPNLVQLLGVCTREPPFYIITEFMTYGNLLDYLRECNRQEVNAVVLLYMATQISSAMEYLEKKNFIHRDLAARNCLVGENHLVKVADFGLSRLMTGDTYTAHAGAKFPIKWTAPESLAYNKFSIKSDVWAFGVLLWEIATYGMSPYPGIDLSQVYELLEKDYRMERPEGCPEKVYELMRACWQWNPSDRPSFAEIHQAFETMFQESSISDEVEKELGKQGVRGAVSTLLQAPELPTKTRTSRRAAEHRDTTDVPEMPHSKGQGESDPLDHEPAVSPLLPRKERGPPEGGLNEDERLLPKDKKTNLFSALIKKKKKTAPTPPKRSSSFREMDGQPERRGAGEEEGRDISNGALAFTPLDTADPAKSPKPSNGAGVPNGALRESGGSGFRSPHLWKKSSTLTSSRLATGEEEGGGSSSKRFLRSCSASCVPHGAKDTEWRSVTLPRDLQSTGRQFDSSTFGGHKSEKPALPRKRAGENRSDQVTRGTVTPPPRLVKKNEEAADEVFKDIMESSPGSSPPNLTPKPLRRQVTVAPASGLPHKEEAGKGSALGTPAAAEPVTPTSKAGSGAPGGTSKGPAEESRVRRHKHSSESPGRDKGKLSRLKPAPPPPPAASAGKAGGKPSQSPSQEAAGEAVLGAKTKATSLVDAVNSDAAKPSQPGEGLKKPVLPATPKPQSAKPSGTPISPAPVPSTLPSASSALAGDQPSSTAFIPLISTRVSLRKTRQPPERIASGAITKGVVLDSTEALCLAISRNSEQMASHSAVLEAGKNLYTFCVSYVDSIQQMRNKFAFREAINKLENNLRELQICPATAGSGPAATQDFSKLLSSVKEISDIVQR
Sequence of G2019S LRRK2 (Q5S007 969-2527 G2019S): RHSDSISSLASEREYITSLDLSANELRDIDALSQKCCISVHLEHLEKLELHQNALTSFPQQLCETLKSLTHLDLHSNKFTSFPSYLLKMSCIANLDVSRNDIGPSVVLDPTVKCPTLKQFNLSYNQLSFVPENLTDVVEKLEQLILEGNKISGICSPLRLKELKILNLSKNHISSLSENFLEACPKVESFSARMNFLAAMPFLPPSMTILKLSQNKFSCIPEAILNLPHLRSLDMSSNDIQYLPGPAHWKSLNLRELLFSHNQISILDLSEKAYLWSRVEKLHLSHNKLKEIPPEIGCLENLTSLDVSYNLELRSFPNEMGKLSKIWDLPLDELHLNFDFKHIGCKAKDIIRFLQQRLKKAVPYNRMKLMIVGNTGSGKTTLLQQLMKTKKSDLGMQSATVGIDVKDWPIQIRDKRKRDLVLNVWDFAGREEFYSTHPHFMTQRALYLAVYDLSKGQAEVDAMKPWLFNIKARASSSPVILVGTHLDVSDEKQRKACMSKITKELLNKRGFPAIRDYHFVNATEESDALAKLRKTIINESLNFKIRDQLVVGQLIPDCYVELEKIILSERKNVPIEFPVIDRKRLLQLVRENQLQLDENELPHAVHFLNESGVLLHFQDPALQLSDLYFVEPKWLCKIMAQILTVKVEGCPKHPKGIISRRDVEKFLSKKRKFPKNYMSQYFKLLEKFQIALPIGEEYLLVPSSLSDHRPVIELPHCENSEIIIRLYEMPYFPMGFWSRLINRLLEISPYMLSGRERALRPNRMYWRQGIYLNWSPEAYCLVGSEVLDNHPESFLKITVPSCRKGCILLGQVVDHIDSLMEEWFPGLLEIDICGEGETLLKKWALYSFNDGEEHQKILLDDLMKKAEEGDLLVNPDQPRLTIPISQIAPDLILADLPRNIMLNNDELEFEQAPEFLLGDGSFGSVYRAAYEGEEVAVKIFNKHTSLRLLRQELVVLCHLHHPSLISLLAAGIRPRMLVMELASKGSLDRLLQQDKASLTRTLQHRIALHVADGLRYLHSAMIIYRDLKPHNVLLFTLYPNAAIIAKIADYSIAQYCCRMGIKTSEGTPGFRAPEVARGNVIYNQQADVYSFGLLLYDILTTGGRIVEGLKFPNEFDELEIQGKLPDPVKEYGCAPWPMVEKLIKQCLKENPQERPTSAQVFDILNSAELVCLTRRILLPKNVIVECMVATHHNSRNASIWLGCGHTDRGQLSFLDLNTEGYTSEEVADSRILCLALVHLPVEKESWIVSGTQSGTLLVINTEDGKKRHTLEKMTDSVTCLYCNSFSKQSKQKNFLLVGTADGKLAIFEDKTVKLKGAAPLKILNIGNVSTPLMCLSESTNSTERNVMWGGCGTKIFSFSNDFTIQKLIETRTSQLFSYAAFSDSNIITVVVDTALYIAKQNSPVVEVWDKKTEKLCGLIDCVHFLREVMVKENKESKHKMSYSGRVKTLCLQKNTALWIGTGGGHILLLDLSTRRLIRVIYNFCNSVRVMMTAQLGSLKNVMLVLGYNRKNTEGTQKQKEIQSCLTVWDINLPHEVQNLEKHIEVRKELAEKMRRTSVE

`O=C1Nc2ccccc2/C1=C/c1cc2cccnc2[nH]1` [Compound 5, (3Z)-3-(1H-pyrrolo[2,3-b]pyridin-2-ylmethylene)indolin-2-one]: the inhibition at 10 µM at G2019S LRRK2 worked out at 30%.

In the case of `O=C1Nc2ccccc2/C1=C\c1cnc2ccccc2c1` [Compound 8, (3E)-3-(3-quinolylmethylene)indolin-2-one], on G2019S LRRK2, the IC50 is 872 nM.

`Cc1ncc(/C=C2\C(=O)Nc3ccc(S(C)(=O)=O)cc32)[nH]1` [Compound 15, (3Z)-3-[(2-methyl-1H-imidazol-5-yl)methylene]-5-methylsulfonyl-indolin-2-one]: the IC50 on G2019S LRRK2 came to 125 nM.

As for `COc1ccc2c(c1)/C(=C/c1cnc(C(C)C)[nH]1)C(=O)N2` [Compound 12, (3Z)-3-[(2-isopropyl-1H-imidazol-5-yl)methylene]-5-methoxy-indolin-2-one], the IC50 on ABL1 is > 10000 nM; against AURKA, 5260 nM; at CAMK2D, 275 nM; on CDK5/p35, > 10000 nM; on CHEK1, > 10000 nM; at IRAK4, 3440 nM. Besides, the IC50 at MARK2 stood at 1840 nM; at G2019S LRRK2, 7.6 nM.

Turning to `O=C1Nc2ccccc2/C1=C\c1nc2ccccc2s1` [Compound 7, (3E)-3-(1,3-benzothiazol-2-ylmethylene)indolin-2-one], the inhibition at 0.1 µM on G2019S LRRK2 was -5%.

For the molecule `Cc1ncc(/C=C2\C(=O)Nc3ccc(OC(C)C)cc32)[nH]1` [Compound 14, (3Z)-5-isopropoxy-3-[(2-methyl-1H-imidazol-5-yl)methylene]indolin-2-one], the IC50 against ABL1 was found to be 860 nM; on AURKA, 50 nM; against CAMK2D, 615 nM; against CDK5/p35, 258 nM; on CHEK1, 999 nM; against IRAK4, 655 nM. The IC50 was 434 nM on MARK2 and 1.2 nM at G2019S LRRK2.

As for `CCOc1ccc2c(c1)/C(=C/c1cnc(C)[nH]1)C(=O)N2` [Compound 13, (3Z)-5-ethoxy-3-[(2-methyl-1H-imidazol-5-yl)methylene]indolin-2-one], the IC50 at G2019S LRRK2 amounted to 3.1 nM.

For `Cc1ncc(/C=C2\C(=O)Nc3ccc(Cl)cc32)[nH]1` [Compound 10, (3Z)-5-chloro-3-[(2-methyl-1H-imidazol-5-yl)methylene]indolin-2-one], the IC50 on G2019S LRRK2 amounted to 16.4 nM.

Consider `Cc1cnc(/C=C2\C(=O)Nc3ccccc32)[nH]1` [Compound 2, (3Z)-3-[(5-methyl-1H-imidazol-2-yl)methylene]indolin-2-one], for which the IC50 on G2019S LRRK2 is 181 nM.

As to `O=C1Nc2ccccc2/C1=C\c1nc2ccccc2o1` [Compound 9, (3E)-3-(1,3-benzoxazol-2-ylmethylene)indolin-2-one], on G2019S LRRK2, the inhibition at 10 µM came out at 11%.

For the molecule `COc1ccc2c(c1)/C(=C/c1cnc(C(C)(C)C)[nH]1)C(=O)N2` [Compound 19, (3Z)-3-[(2-tert-butyl-1H-imidazol-5-yl)methylene]-5-methoxy-indolin-2-one], the IC50 is > 10000 nM against ABL1; > 10000 nM against AURKA; 1470 nM against CAMK2D; > 10000 nM against CDK5/p35; > 10000 nM on CHEK1; > 10000 nM against IRAK4. The IC50 was > 10000 nM against MARK2 and 43.9 nM on G2019S LRRK2.

`COCc1ncc(/C=C2\C(=O)Nc3ccc(OC)cc32)[nH]1` [Compound 17, (3Z)-5-methoxy-3-[[2-(methoxymethyl)-1H-imidazol-5-yl]methylene]indolin-2-one]: the IC50 at G2019S LRRK2 stood at 38.7 nM.

Turning to `COc1ccc2c(c1)/C(=C/c1cnc(C)[nH]1)C(=O)N2` [Compound 4, (3Z)-5-methoxy-3-[(2-methyl-1H-imidazol-5-yl)methylene]indolin-2-one], the IC50 on G2019S LRRK2 was determined as 6.9 nM.

Regarding `Cc1cc(/C=C2\C(=O)Nc3ccccc32)[nH]n1` [Compound 1, (3Z)-3-[(3-methyl-1H-pyrazol-5-yl)methylene]indolin-2-one], the inhibition at 0.1 µM on G2019S LRRK2 turned out to be 22%.

As to `CCc1ncc(/C=C2\C(=O)Nc3ccc(OC)cc32)[nH]1` [Compound 16, (3Z)-3-[(2-ethyl-1H-imidazol-5-yl)methylene]-5-methoxy-indolin-2-one], the 50% inhibitory concentration (IC50) on G2019S LRRK2 was 3.5 nM.

For `Cc1ncc(/C=C2\C(=O)Nc3ccc(F)cc32)[nH]1` [Compound 3, (3Z)-5-fluoro-3-[(2-methyl-1H-imidazol-5-yl)methylene]indolin-2-one], the IC50 at G2019S LRRK2 is 38 nM.

With `COc1ccc2c(c1)NC(=O)/C2=C\c1cnc(C)[nH]1` [Compound 6, (3Z)-6-methoxy-3-[(2-methyl-1H-imidazol-5-yl)methylene]indolin-2-one], the IC50 at G2019S LRRK2 turned out to be 127 nM.

For `Cc1ncc(/C=C2\C(=O)Nc3ccc(OC(F)(F)F)cc32)[nH]1` [Compound 11, (3Z)-3-[(2-methyl-1H-imidazol-5-yl)methylene]-5-(trifluoromethoxy)indolin-2-one], the IC50 on G2019S LRRK2 is 41.2 nM.

For orientation: inhibition means the relative decrease from the control value, in per cent. For orientation: IC50 means the point on the concentration scale where inhibition reaches its midpoint.
